How the values were obtained:
Assay type in all cases: biochemical
KDR = KDR (Homo sapiens, UniProt P35968); experiment: Human KDR kinase assay (HTRF KinEase); design: Human KDR (residues 790-1356; CarnaBio, 0.1 ng/ well); purchased CarnaBio; settings: Table 2 Biological Activities, ATP at Km (4.0 μM)
Method: (§1) Kinase activity and compound inhibition were investigated using the HTRF® KinEase assay (Cisbio Cat #62TKOPEB) per manufacturer's instructions. In short, compounds were delivered in 300 nL volumes at 10 different concentrations in DMSO (3% final) to empty 384-well assay plates (Corning cat #3824). A mixture of enzyme, 1 μM biotynlated peptide substrate, and buffer in 10 μL volume was added. The assay was started upon the addition of ATP (at Km). The 10 μL reaction was incubated at room temperature. The reaction was stopped upon the addition of detection buffer containing streptavidin-XL665 (5 μL) and TK antibody-Eu3+ (5 μL). After a 60 min incubation at room temperature, the fluorescence at 665 nm and 620 nm was read on an Envision microplate reader (Perkin Elmer). Kinase activity normalized to DMSO (100% activity) and reference compound at 1 μM and (0% activity) was calculated using the fluorescence ratio […]. IC50 values were calculated by nonlinear regression analysis using a 4-parameter logistic curve fit in ActivityBase XE (IDBS).
(§2) Human KDR (residues 790-1356; CarnaBio, 0.1 ng/ well) was incubated with enzymatic buffer (Cisbio) supplemented with 5 mM MgCl2, 1 mM MnCl2, and 1 mM DTT. The mixture was added to the pre-plated compounds. The reaction was initiated upon addition of ATP at Km (4.0 μM). The reaction was incubated at room temperature for 40 min and stopped upon the addition of SA-XL665 and TK-antibody both diluted in EDTA-containing kinase detection buffer (Cisbio). The kinase activity was calculated as stated above and the IC50 values were reported.

Human MER = target: T1, Human MER (Homo sapiens, UniProt Q12866); experiment: Human MER kinase assay (HTRF KinEase); settings: Table 2 Biological Activities, ATP at Km (40 μM)
T1 construct: Human MER (residues 528-999; CarnaBio, 1 ng/ well); purchased CarnaBio
T1 sequence (Q12866 528-999): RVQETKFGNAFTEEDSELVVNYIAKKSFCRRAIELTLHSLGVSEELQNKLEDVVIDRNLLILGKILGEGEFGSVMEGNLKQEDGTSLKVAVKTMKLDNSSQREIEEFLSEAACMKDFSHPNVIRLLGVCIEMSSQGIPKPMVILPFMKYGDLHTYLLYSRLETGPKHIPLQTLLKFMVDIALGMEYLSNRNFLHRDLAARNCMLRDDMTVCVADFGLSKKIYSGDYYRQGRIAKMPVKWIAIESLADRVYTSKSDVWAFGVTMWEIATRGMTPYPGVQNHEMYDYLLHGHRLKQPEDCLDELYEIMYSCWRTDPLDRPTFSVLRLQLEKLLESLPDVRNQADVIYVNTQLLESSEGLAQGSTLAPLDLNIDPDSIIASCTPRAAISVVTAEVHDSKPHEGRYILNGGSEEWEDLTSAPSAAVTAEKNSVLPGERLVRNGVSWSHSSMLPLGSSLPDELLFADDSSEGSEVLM
Method: as §1
as §2, with “MER” for “KDR”, “528-999;” for “790-1356;”, “1” for “0.1”, “MgCl2” for “MgCl2, 1 mM MnCl2,”, “(40” for “(4.0”, “60” for “40”

Met = Met (Homo sapiens, UniProt P08581); experiment: Human MET kinase assay (HTRF KinEase); design: Human MET (residues 956-1390; CarnaBio, 0.1 ng/ well); purchased CarnaBio; settings: Table 2 Biological Activities, ATP at Km (3.0 μM), read-out: c-Met IC50
Met, sequence (P08581 956-1390): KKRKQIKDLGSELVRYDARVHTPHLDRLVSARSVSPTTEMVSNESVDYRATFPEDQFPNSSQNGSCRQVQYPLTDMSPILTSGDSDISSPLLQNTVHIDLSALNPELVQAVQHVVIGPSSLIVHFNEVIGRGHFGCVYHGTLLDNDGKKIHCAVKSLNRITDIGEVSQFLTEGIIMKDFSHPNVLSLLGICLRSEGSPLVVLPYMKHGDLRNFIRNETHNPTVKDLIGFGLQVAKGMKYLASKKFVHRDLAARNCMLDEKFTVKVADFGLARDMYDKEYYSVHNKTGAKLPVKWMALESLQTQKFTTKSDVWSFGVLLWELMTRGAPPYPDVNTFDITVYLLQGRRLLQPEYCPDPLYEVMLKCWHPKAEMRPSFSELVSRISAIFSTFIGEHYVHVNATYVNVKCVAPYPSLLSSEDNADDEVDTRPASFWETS
Method: as §1
as §2, with “MET” for “KDR”, “956-1390;” for “790-1356;”, “DTT” for “MnCl2,”, “MnCl2.” for “DTT.”, “(3.0” for “(4.0”

Human AXL = target: T2, Human AXL (Homo sapiens, UniProt P30530); experiment: Human AXL kinase assay (HTRF KinEase); settings: Table 2 Biological Activities, ATP at Km (1.0 μM)
T2 construct: Human AXL (residues 464-885; CarnaBio, 1 ng/ well); purchased CarnaBio
T2 sequence (P30530 464-885 isoform P30530-2): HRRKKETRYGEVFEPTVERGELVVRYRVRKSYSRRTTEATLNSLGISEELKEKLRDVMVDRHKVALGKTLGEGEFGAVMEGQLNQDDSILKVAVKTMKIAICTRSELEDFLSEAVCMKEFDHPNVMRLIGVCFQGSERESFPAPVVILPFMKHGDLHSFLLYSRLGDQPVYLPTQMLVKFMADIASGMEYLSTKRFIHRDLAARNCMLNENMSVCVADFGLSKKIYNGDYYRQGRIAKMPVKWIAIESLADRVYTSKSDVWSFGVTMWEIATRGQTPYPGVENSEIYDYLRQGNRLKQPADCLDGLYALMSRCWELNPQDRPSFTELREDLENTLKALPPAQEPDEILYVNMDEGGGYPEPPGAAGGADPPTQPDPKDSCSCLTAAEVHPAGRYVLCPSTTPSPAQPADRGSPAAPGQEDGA
Method: as §1
Human AXL (residues 464-885; CarnaBio, 1 ng/ well) was incubated with enzymatic buffer (Cisbio) supplemented with 5 mM MgCl2, 1 mM DTT, and Supplemental Enzymatic Buffer (SEB; Cisbio). The mixture was added to the pre-plated compounds. The reaction was initiated upon addition of ATP at Km (1.0 μM). The reaction was incubated at room temperature for 50 min and stopped upon the addition of SA-XL665 and TK-antibody both diluted in EDTA-containing kinase detection buffer (Cisbio). The kinase activity was calculated as stated above and the IC50 values were reported.

KDR, sequence (P35968 790-1356): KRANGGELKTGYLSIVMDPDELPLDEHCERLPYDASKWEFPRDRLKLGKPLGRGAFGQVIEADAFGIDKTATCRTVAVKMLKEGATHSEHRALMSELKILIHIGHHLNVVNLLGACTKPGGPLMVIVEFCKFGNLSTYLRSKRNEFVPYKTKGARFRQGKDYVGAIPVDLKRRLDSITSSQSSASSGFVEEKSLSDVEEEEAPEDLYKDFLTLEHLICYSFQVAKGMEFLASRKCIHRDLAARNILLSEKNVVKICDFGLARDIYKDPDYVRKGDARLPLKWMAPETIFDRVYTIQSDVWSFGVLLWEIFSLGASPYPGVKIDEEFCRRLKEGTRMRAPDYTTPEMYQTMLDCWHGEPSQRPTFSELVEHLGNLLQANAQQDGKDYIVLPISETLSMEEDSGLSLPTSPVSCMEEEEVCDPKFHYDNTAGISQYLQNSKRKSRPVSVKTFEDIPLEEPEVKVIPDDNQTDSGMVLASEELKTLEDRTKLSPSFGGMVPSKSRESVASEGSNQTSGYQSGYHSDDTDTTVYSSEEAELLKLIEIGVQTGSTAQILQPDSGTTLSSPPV

| Structure (SMILES) | IC50 (KDR) | IC50 (Human MER) | IC50 (Met) | IC50 (Human AXL) |
| --- | --- | --- | --- | --- |
| COc1cc2nccc(Oc3ccc(NC(=O)c4cnc(C)c(-c5ccc(F)cn5)c4O)cc3F)c2nc1OC [Compound 85, N-[4-[(6,7-Dimethoxy-1,5-naphthyridin-4-yl)oxy]-3-fluorophenyl]-5-(5-fluoropyridin-2-yl)-4-hydroxy-6-methylpyridine-3-carboxamide] | ≤ 100 nM | ≤ 100 nM | ≤ 100 nM | ≤ 100 nM |
| COCCOc1cc2nccc(Oc3ccc(NC(=O)c4ccc(C)n(-c5ccc(F)cn5)c4=O)cc3F)c2nc1OC [Compound 50, N-[3-Fluoro-4-[[6-methoxy-7-(2-methoxyethoxy)-1,5-naphthyridin-4-yl]oxy]phenyl]-1-(5-fluoropyridin-2-yl)-6-methyl-2-oxopyridine-3-carboxamide] | ≤ 100 nM | ≤ 100 nM | ≤ 100 nM | ≤ 100 nM |
| COc1cnc2c(Oc3ccc(NC(=O)c4c(C)nc(C)c(-c5ccc(F)cn5)c4O)cc3F)ccnc2c1 [Compound 217, N-[3-Fluoro-4-[(7-methoxy-1,5-naphthyridin-4-yl)oxy]phenyl]-5-(5-fluoropyridin-2-yl)-4-hydroxy-2,6-dimethylpyridine-3-carboxamide] | – | – | ≤ 100 nM | ≤ 100 nM |
| Cc1ccc(C(=O)Nc2ccc(Oc3ccnc4cnc(Cl)cc34)c(F)c2)c(=O)n1-c1ccc(F)cn1 [Compound 54A, N-[4-[(6-Chloro-1,7-naphthyridin-4-yl)oxy]-3-fluorophenyl]-1-(5-fluoropyridin-2-yl)-6-methyl-2-oxopyridine-3-carboxamide] | 300 to 1000 nM | ≤ 100 nM | 100 to 300 nM | – |
| COc1cc2nccc(Oc3ccc(NC(=O)c4ccc(C)n(-c5ccncc5F)c4=O)cc3F)c2nc1OC [Compound 220, N-[4-[(6,7-Dimethoxy-1,5-naphthyridin-4-yl)oxy]-3-fluorophenyl]-1-(3-fluoropyridin-4-yl)-6-methyl-2-oxopyridine-3-carboxamide] | – | – | ≤ 100 nM | ≤ 100 nM |
| COc1ccc2nccc(Oc3ccc(NC(=O)c4ccc(C)n(-c5ccc(F)cn5)c4=O)cc3F)c2c1 [Compound 49, N-[3-Fluoro-4-(6-methoxyquinolin-4-yl)oxyphenyl]-1-(5-fluoropyridin-2-yl)-6-methyl-2-oxopyridine-3-carboxamide] | 100 to 300 nM | ≤ 100 nM | ≤ 100 nM | – |
| COc1cc2nccc(Oc3ccc(NC(=O)c4c(C)n(C)cc(-c5ccc(F)cn5)c4=O)cc3F)c2nc1OC [Compound 71, N-[4-[(6,7-Dimethoxy-1,5-naphthyridin-4-yl)oxy]-3-fluorophenyl]-5-(5-fluoropyridin-2-yl)-1,2-dimethyl-4-oxopyridine-3-carboxamide] | 300 to 1000 nM | ≤ 100 nM | – | – |
| COc1cc2nccc(Oc3ccc(NC(=O)c4ccc(C)n(-c5ccncc5)c4=O)cc3F)c2nc1OC [Compound 221, N-[4-[(6,7-Dimethoxy-1,5-naphthyridin-4-yl)oxy]-3-fluorophenyl]-6-methyl-2-oxo-1-pyridin-4-ylpyridine-3-carboxamid] | – | – | ≤ 100 nM | ≤ 100 nM |
| COc1cnc2c(Oc3ccc(NC(=O)c4c(C)n(C)cc(-c5ccc(F)cn5)c4=O)cc3F)ccnc2c1 [Compound 73, N-[3-Fluoro-4-[(7-methoxy-1,5-naphthyridin-4-yl)oxy]phenyl]-5-(5-fluoropyridin-2-yl)-1,2-dimethyl-4-oxopyridine-3-carboxamide] | 300 to 1000 nM | 100 to 300 nM | 300 to 1000 nM | – |
| COc1cc2nccc(Oc3ccc(NC(=O)c4cc(C#N)c(C)n(-c5ccc(F)cn5)c4=O)cc3F)c2nc1OC [Compound 56, 5-Cyano-N-[4-[(6,7-dimethoxy-1,5-naphthyridin-4-yl)oxy]-3-fluorophenyl]-1-(5-fluoropyridin-2-yl)-6-methyl-2-oxopyridine-3-carboxamide] | 300 to 1000 nM | ≤ 100 nM | ≤ 100 nM | – |

The remaining lines, values ahead:

| IC50 (KDR) | IC50 (Human MER) | IC50 (Met) | IC50 (Human AXL) | Structure (SMILES) |
| --- | --- | --- | --- | --- |
| 300 to 1000 nM | 100 to 300 nM | 300 to 1000 nM | – | COc1cc2nccc(Oc3ccc(NC(=O)c4c(C)n(C)cc(-c5ccc(F)cn5)c4=O)cc3)c2nc1OC [Compound 72, N-[4-[(6,7-Dimethoxy-1,5-naphthyridin-4-yl)oxy]phenyl]-5-(5-fluoropyridin-2-yl)-1,2-dimethyl-4-oxopyridine-3-carboxamide] |
| 300 to 1000 nM | ≤ 100 nM | ≤ 100 nM | ≤ 100 nM | COc1cc2nccc(Oc3ccc(NC(=O)c4cn(C)c(C)c(-c5ccc(F)cn5)c4=O)cc3)c2nc1OC [Compound 86, N-[4-[(6,7-Dimethoxy-1,5-naphthyridin-4-yl)oxy]phenyl]-5-(5-fluoropyridin-2-yl)-1,6-dimethyl-4-oxopyridine-3-carboxamide] |
| – | – | ≤ 100 nM | ≤ 100 nM | COc1cc2nccc(Oc3ccc(NC(=O)c4c(C)nc(C)c(-c5ccc(F)cn5)c4O)cc3)c2nc1OC [Compound 216, N-[4-[(6,7-Dimethoxy-1,5-naphthyridin-4-yl)oxy]phenyl]-5-(5-fluoropyridin-2-yl)-4-hydroxy-2,6-dimethylpyridine-3-carboxamide] |
| – | – | ≤ 100 nM | ≤ 100 nM | COCc1nc(C)c(-c2ccc(F)cn2)c(O)c1C(=O)Nc1ccc(Oc2ccnc3cc(OC)c(OC)nc23)c(F)c1 [Compound 214, N-[4-[(6,7-Dimethoxy-1,5-naphthyridin-4-yl)oxy]-3-fluorophenyl]-5-(5-fluoropyridin-2-yl)-4-hydroxy-2-(methoxymethyl)-6-methylpyridine-3-carboxamid] |
| – | – | ≤ 100 nM | ≤ 100 nM | COc1cc2nccc(Oc3ccc(NC(=O)c4c(C)nc(C)c(-c5ccc(F)cn5)c4O)cc3F)c2nc1OC [Compound 218, N-[4-[(6,7-Dimethoxy-1,5-naphthyridin-4-yl)oxy]-3-fluorophenyl]-5-(5-fluoropyridin-2-yl)-4-hydroxy-2,6-dimethylpyridine-3-carboxamide] |
